Source: patent publication US20120214842A1, “METHODS FOR TREATING DISEASES OF THE RETINA” (priority 2011, published 2012)

Test system: ABCA4/RDH8 mouse model
Assay: Light-induced retinal degeneration in ABCA4/RDH8 mouse model (ERG, retinal histology, SLO autofluorescence)
Assay type: in vivo
Conditions: 10 mg/kg twice daily IP, 10,000 lux light for 30 min on day 3
Procedure: The invention is illustrated by the following example. The compound of the invention was tested with the following experimental protocol: (1) Mice are dosed twice daily at 10 mg/kg or vehicle, IP. (2) On day 3, mice are exposed to 10,000 lux light for 30 min, 2 h after the first dosing and 6 h before the last dosing. (3) On day 11 ERG measurements are taken. (4) On day 12, mice are sacrificed for retinal histology. The ERG functional assay measures the functional integrity of retina. […] In the model, autofluorescence appears as the retina degenerates.

loss of ERG function (functional integrity of retina) (ERG on day 11, vs vehicle, FIG. 1): prevents loss of ERG function | photoreceptor cell loss (retinal histology grade; higher grade indicates more loss) (histology on day 12, FIG. 2): protects photoreceptor cell loss
Compound: Cn1cc(-c2ccncc2)c(-c2ccc(OCc3ccc4ccccc4n3)cc2)n1 [MP-10, 2-[4-(1-methyl-4-pyridin-4-yl-1H-pyrazol-3-yl)-phenoxymethyl]-quinoline]
autofluorescence in retina measured by SLO (FIG. 3): reduces the appearance of autofluorescence
